# According to ChEMBL document CHEMBL1155160, “Novel complex class 1 integron bearing an ISCR1 element in an Escherichia coli isolate carrying the blaCTX-M-14 gene” (2007):
# System: Escherichia coli
# Experiment: Antimicrobial activity against Escherichia coli AJE0508 isolate carrying ISCR1 element related blaCTX-M-14 gene by agar dilution method
# Assay type: functional
row,Structure (SMILES),MIC
1,CO[C@@]1(NC(=O)Cc2cccs2)C(=O)N2C(C(=O)O)=C(COC(N)=O)CS[C@@H]21 [CEFOXITIN],8 µg/mL
2,CO/N=C(\C(=O)N[C@@H]1C(=O)N2C(C(=O)O)=C(COC(C)=O)CS[C@H]12)c1csc(N)n1 [CEFOTAXIME],64 µg/mL
3,C[C@H]1[C@H](NC(=O)/C(=N\OC(C)(C)C(=O)O)c2csc(N)n2)C(=O)N1S(=O)(=O)O [AZTREONAM],64 µg/mL
4,CC(C)(O/N=C(\C(=O)N[C@@H]1C(=O)N2C(C(=O)[O-])=C(C[n+]3ccccc3)CS[C@H]12)c1csc(N)n1)C(=O)O [CEFTAZIDIME],32 µg/mL
5,CC1(C)S[C@@H]2[C@H](NC(=O)[C@H](N)c3ccccc3)C(=O)N2[C@H]1C(=O)O [AMPICILLIN],> 256 µg/mL
6,C[C@@H](O)[C@H]1C(=O)N2C(C(=O)O)=C(SCCNC=N)C[C@H]12 [IMIPENEM ANHYDROUS],0.1 µg/mL
